# Measured values published in patent US20110124715A1, “Antiviral Oligonucleotides Having a Conserved G4 Core Sequence” (priority 1992, published 2011).
# “And” between values parts separate entries of the source, which are not always exact repeats. Equal values may be shown once. Strand notation (5' to 3'): a small letter for the sugar, then the base; units joined by * are phosphorothioate-linked, units joined directly phosphodiester-linked; [ ] holds rarer units or linkages, { } end groups; capitals alone tell only the bases. [I] = hypoxanthine (inosine); d = 2'-deoxy (DNA)
# Test system: HIV-1
# Assay: not given
# Settings: Table 16; acute HIV assay; listed as ToToGoGoGoGoToT
row,Substance,IC50
1,TT GGGG TT [ISIS 5671],inactive

# Test system: HSV-1 (KOS)
# Assay: HSV-1 infection ELISA assay
# Assay type: cell-based, herpes simplex virus
# Settings: Table 12; inosine-substituted oligonucleotides against HSV
row,Substance,EC50
1,"4925 (GTTGGAGACCGGNGTTGGNG; DNA, [I] at 13, 19, backbone not given here) [compound 4925]",1.6 µM
2,"5310 (GTTGGAGACCGGGGTTGGGN; DNA, [I] at 20, backbone not given here) [compound 5310]",0.4 µM
3,"5295 (GTTGGAGACCGGGNTTGGGG; DNA, [I] at 14, backbone not given here) [compound 5295]",> 3 µM

# Same assay, conditions: b150; duplicate experiments
row,Substance,EC50
1,"GCCGAGGTCCATGTCGTACGC (GCCGAGGTCCATGTCGTACGC; chemistry not given here) [ISIS 1082, negative control oligonucleotide complementary to HSV UL13 translation initiation codon; has no runs of G, reference compound]",2.5 µM and 1.8 µM

# Molecular target: T1, human type II phospholipase A2 (Homo sapiens, UniProt P14555)
# T1 sequence (P14555 21-144): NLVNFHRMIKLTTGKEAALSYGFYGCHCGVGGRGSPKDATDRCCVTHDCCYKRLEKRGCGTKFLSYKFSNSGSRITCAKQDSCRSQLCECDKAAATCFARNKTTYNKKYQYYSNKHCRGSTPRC
# Assay: Phospholipase A2 assay, 3H-oleic acid labelled E. coli substrate
# Assay type: biochemical
# Settings: 1 μM
row,Substance,inhibition of enzyme activity
1,GGG T GGG T ATA G AAG G GCT CC (GGGTGGGTATAGAAGGGCTCC; chemistry not given here) [ISIS 3196],completely inhibited
2,GTAGGGAGGGAGGGTATGAGA (dG*dT*dA*dG*dG*dG*dA*dG*dG*dG*dA*dG*dG*dG*dT*dA*dT*dG*dA*dG*dA) [ISIS 3470],completely inhibited
3,GTGGAGGAGAGCAGTAGAAGG (dG*dT*dG*dG*dA*dG*dG*dA*dG*dA*dG*dC*dA*dG*dT*dA*dG*dA*dA*dG*dG) [ISIS 3477],54.7%

# Same assay, conditions: Table 4; 1 μM
row,Substance,% Inhibition (1 μM)
1,3475 (dT*dC*dT*dC*dA*dT*dT*dC*dT*dG*dG*dG*dT*dG*dG*dG*dT*dA*dT*dA*dG) [compound 3475],67.0%
2,3477 (dG*dT*dG*dG*dA*dG*dG*dA*dG*dA*dG*dC*dA*dG*dT*dA*dG*dA*dA*dG*dG) [compound 3477],54.7%
3,3633 (dG*dT*dA*dG*dG*dG*dA*dT*dG*dG*dG*dA*dG*dT*dG*dA*dA*dG*dG*dA*dG) [compound 3633],58.5%
4,3473 (dC*dT*dG*dC*dC*dT*dG*dG*dC*dC*dT*dC*dT*dA*dG*dG*dA*dT*dG*dG*dG) [compound 3473],25.9%
5,3468 (dG*dG*dG*dA*dC*dT*dC*dA*dG*dC*dA*dA*dC*dG*dA*dG*dG*dG*dG*dT*dG) [compound 3468],97.5%
6,3470 (dG*dT*dA*dG*dG*dG*dA*dG*dG*dG*dA*dG*dG*dG*dT*dA*dT*dG*dA*dG*dA) [compound 3470],88.9%
7,3474 (dA*dT*dA*dG*dA*dA*dG*dG*dG*dC*dT*dC*dC*dT*dG*dC*dC*dT*dG*dG*dC) [compound 3474],13.3%
8,3480 (dT*dT*dG*dC*dT*dT*dT*dA*dT*dT*dC*dA*dG*dA*dA*dG*dA*dG*dA*dC*dC) [compound 3480],24.5%
9,4133 (dA*dG*dT*dG*dC*dA*dC*dG*dT*dT*dG*dA*dG*dT*dA*dT*dG*dT*dG*dA*dG) [compound 4133],37.3%
10,4149 (dC*dT*dA*dC*dG*dG*dC*dA*dG*dA*dG*dA*dC*dG*dA*dG*dA*dT*dA*dG*dC) [compound 4149],20.2%
11,"3185 (antisense CAAAGATCATGATCACTGCCA; phosphorothioate, chemistry not fully specified) [compound 3185]",22.7%
12,3671 (dT*dA*dG*dG*dA*dG*dG*dG*dT*dC*dT*dT*dC*dA*dT*dG*dG*dT*dA*dA*dG) [compound 3671],49.3%
13,3182 (antisense dC*dA*dG*dA*dG*dG*dA*dC*dT*dC*dC*dA*dG*dA*dG*dT*dT*dG*dT*dA*dT) [compound 3182],30.2%
14,3472 (dT*dG*dG*dG*dT*dG*dA*dG*dG*dG*dA*dT*dG*dC*dT*dT*dT*dC*dT*dG*dC) [compound 3472],69.0%
15,3629 (dC*dA*dC*dC*dC*dC*dT*dC*dG*dT*dT*dG*dC*dT*dG*dA*dG*dT*dC*dC*dC) [compound 3629],20.5%
16,3479 (dC*dC*dG*dG*dA*dG*dT*dA*dC*dA*dG*dC*dT*dT*dC*dT*dT*dT*dG*dG*dT) [compound 3479],42.3%
17,3181 (antisense dT*dC*dT*dG*dC*dC*dC*dC*dG*dG*dC*dC*dG*dT*dC*dG*dC*dT*dC*dC*dC) [compound 3181],42.7%
18,3697 (dA*dC*dT*dC*dT*dT*dA*dC*dC*dA*dC*dA*dG*dG*dT*dG*dA*dT*dT*dC*dT) [compound 3697],39%
19,3630 (dT*dC*dT*dC*dA*dT*dA*dC*dC*dC*dT*dC*dC*dC*dT*dC*dC*dC*dT*dA*dC) [compound 3630],17.6%
20,3196 (dG*dG*dG*dT*dG*dG*dG*dT*dA*dT*dA*dG*dA*dA*dG*dG*dG*dC*dT*dC*dC) [compound 3196],98.5%

row,Substance,% Inhibition (1 μM)
1,3663 (dC*dT*dC*dT*dG*dC*dT*dG*dG*dG*dT*dG*dG*dT*dC*dT*dC*dA*dA*dC*dT) [compound 3663],16.3%
2,3628 (dG*dG*dA*dG*dC*dC*dC*dT*dT*dC*dT*dA*dT*dA*dC*dC*dC*dA*dC*dC*dC) [compound 3628],13.6%
3,3659 (dT*dG*dC*dT*dC*dC*dT*dC*dC*dT*dT*dG*dG*dT*dG*dG*dC*dT*dC*dT*dC) [compound 3659],38.2%
4,3632 (dC*dC*dA*dG*dG*dA*dG*dA*dG*dG*dT*dC*dG*dG*dT*dA*dA*dG*dG*dC*dG) [compound 3632],29.2%
5,3712 (dA*dG*dG*dA*dG*dT*dC*dC*dT*dG*dT*dT*dT*dT*dG*dA*dA*dA*dT*dC*dA) [compound 3712],31.8%
6,3694 (dA*dC*dA*dG*dC*dA*dG*dC*dT*dG*dT*dG*dA*dG*dG*dA*dG*dA*dC*dA*dC) [compound 3694],28.2%
7,3688 (dT*dG*dG*dC*dC*dT*dC*dA*dC*dC*dG*dA*dT*dC*dC*dG*dT*dT*dG*dC*dA) [compound 3688],43.1%
8,3193 (dC*dC*dT*dG*dC*dA*dG*dT*dA*dG*dG*dC*dC*dT*dG*dG*dA*dA*dG*dG*dA) [compound 3193],22.6%
9,3676 (dA*dG*dC*dT*dC*dT*dT*dA*dC*dC*dA*dA*dA*dG*dA*dT*dC*dA*dT*dG*dA) [compound 3676],24.5%
10,3631 (dA*dG*dG*dT*dC*dG*dA*dG*dG*dA*dG*dT*dG*dG*dT*dC*dT*dG*dA*dG*dC) [compound 3631],20.7%
11,3192 (dG*dG*dA*dA*dG*dG*dT*dT*dT*dC*dC*dA*dG*dG*dG*dA*dA*dG*dA*dG*dG) [compound 3192],28.1%
12,3679 (dA*dG*dT*dA*dG*dG*dC*dC*dT*dG*dG*dA*dA*dG*dG*dA*dA*dA*dT*dT*dT) [compound 3679],30.3%
13,3669 (dG*dG*dT*dG*dA*dC*dA*dA*dA*dT*dG*dC*dA*dG*dA*dT*dG*dG*dA*dC*dT) [compound 3669],34.7%
14,3478 (dT*dG*dG*dT*dT*dA*dA*dG*dC*dA*dC*dG*dG*dA*dG*dT*dT*dG*dA*dG*dG) [compound 3478],26.4%
15,3184 (antisense dT*dT*dC*dA*dT*dG*dG*dT*dA*dA*dG*dA*dG*dT*dT*dC*dT*dT*dG*dG*dG) [compound 3184],25.1%
16,3665 (dG*dG*dA*dC*dT*dG*dG*dC*dC*dT*dA*dG*dC*dT*dC*dC*dT*dC*dT*dG*dC) [compound 3665],45.8%
17,3471 (dA*dA*dG*dG*dA*dA*dC*dT*dT*dG*dG*dT*dT*dA*dG*dG*dG*dT*dA*dG*dG) [compound 3471],34.5%
18,3481 (dT*dT*dT*dT*dT*dG*dA*dT*dT*dT*dG*dC*dT*dA*dA*dT*dT*dG*dC*dT*dT) [compound 3481],2.2%
19,3476 (dG*dC*dT*dG*dG*dA*dA*dA*dT*dC*dT*dG*dC*dT*dG*dG*dA*dT*dG*dT*dC) [compound 3476],43.4%

# Same assay, conditions: Table 5; 1 μM; two separate experiments
row,Substance,% Inhibition (1 μM)
1,4946 (dG*dG*dG*dT*dG*dG*dG*dA*dA*dT*dA*dG) [compound 4946],73.2%
2,4947 (dA*dG*dG*dT*dG*dG*dG*dT*dA*dT*dA*dG) [compound 4947],22.7%
3,4955 (dG*dG*dG*dA*dG*dG*dG*dT*dA*dT*dA*dG) [compound 4955],97.5%
4,3196 (dG*dG*dG*dT*dG*dG*dG*dT*dA*dT*dA*dG*dA*dA*dG*dG*dG*dC*dT*dC*dC) [compound 3196],100% and 76.2%
5,4957 (dG*dG*dG*dT*dG*dG*dA*dT*dA*dT*dA*dG) [compound 4957],81.9%
6,4962 (dG*dG*dG*dT*dG*dG*dG*dT*dA*dT) [compound 4962],36.3%
7,4672 (dG*dG*dG*dT*dG*dG*dG*dT*dA*dT*dA*dG) [compound 4672],73.9% and 94.6%
8,4956 (dG*dG*dG*dC*dG*dG*dG*dT*dA*dT*dA*dG) [compound 4956],92.0%

# Same assay, conditions: b86; fold higher
row,Substance,I.C.50 relative to ISIS 3196
1,3628 (dG*dG*dA*dG*dC*dC*dC*dT*dT*dC*dT*dA*dT*dA*dC*dC*dC*dA*dC*dC*dC) [compound 3628],approximately 10 fold
2,AGGTCGAGGAGTGGTCTGAGC (dA*dG*dG*dT*dC*dG*dA*dG*dG*dA*dG*dT*dG*dG*dT*dC*dT*dG*dA*dG*dC) [ISIS 3631],approximately 10 fold

# Same assay, conditions: boiling water for 15 minutes prior to addition to the assay
row,Substance,inhibition
1,GGG T GGG T ATA G AAG G GCT CC (GGGTGGGTATAGAAGGGCTCC; chemistry not given here) [ISIS 3196],21%

# Same assay, conditions: concentrations as high as 10 μM
row,Substance,inhibition of phospholipase A2
1,"ISIS 1573: phosphorothioate deoxyoligonucleotide, SEQ ID NO: 120 (DNA dG*dA*dG*dG*dC*dT*dG*dA*dG*dG*dT*dG*dG*dG*dA*dG*dG*dA)",did not significantly inhibit

# Same assay, conditions: increasing amounts of E. coli substrate; ISIS 3481 at 0.2 μM and 2 μM
row,Substance,effect on substrate kinetics
1,GGG T GGG T ATA G AAG G GCT CC (GGGTGGGTATAGAAGGGCTCC; chemistry not given here) [ISIS 3196],apparent noncompetitive inhibitor
2,TTTTTGATTTGCTAATTGCTT (dT*dT*dT*dT*dT*dG*dA*dT*dT*dT*dG*dC*dT*dA*dA*dT*dT*dG*dC*dT*dT) [ISIS 3481],did not modify the substrate kinetics

# Same assay, conditions: native, not boiled
row,Substance,inhibition
1,GGG T GGG T ATA G AAG G GCT CC (GGGTGGGTATAGAAGGGCTCC; chemistry not given here) [ISIS 3196],94%
